Assay results reported in ChEMBL document CHEMBL1128815, “Uracil-based angiotensin II receptor antagonists” (Bioorg Med Chem Lett, 1995).

What was measured:
[1] = target: T1, Type-1 angiotensin II receptor B (Rattus norvegicus, UniProt P29089); assay: Tested for binding affinity against angiotensin II receptor in rat adrenal cortex; type: tissue-based
T1 sequence (P29089 whole entry): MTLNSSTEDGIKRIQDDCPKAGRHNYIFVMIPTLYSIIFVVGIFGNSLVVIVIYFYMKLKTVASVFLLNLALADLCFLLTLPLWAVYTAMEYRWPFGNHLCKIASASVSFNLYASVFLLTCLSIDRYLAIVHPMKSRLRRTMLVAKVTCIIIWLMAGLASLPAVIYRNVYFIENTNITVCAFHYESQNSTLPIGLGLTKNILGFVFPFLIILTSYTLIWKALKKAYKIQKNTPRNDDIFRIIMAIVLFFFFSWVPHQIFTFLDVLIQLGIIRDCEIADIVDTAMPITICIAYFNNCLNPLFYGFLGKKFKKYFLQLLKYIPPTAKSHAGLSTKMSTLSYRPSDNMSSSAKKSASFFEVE

[2] = target: T2, Type-1 angiotensin II receptor (Bos taurus, UniProt P25104); assay: Tested for binding affinity against angiotensin II receptor in bovine adrenal cortex; type: tissue-based
T2 sequence (P25104 whole entry): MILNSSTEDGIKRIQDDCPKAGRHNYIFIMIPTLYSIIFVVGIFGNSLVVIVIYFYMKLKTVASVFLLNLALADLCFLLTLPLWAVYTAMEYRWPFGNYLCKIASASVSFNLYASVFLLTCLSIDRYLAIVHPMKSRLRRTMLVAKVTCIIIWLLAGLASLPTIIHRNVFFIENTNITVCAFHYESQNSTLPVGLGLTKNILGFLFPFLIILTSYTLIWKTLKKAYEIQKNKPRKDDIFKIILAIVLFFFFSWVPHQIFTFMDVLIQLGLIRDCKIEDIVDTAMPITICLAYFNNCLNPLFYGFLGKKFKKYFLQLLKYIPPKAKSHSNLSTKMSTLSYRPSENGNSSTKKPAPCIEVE

SMILES	IC50 [1] [nM]	IC50 [2] [nM]
CCCCc1cc(=O)n(C)c(=O)n1Cc1ccc(-c2ccccc2-c2nn[nH]n2)cc1	4.5	44
CCCc1cc(=O)n(CCNC(C)=O)c(=O)n1Cc1ccc(-c2ccccc2-c2nnn[nH]2)cc1	3.4	40
CCCCc1cc(=O)n2nc(-c3ccccc3)nc2n1Cc1ccc(-c2ccccc2-c2nn[nH]n2)cc1	83	520
CCc1cc(=O)n(C)c(=O)n1Cc1ccc(-c2ccccc2-c2nnn[nH]2)cc1		1000
CCCc1cc2ncnn2c(=O)n1Cc1ccc(-c2ccccc2-c2nnn[nH]2)cc1	6.2	62
C=CCn1c(=O)cc(CCC)n(Cc2ccc(-c3ccccc3-c3nnn[nH]3)cc2)c1=O	3.3	34
CCCc1cc(=O)[nH]c(=O)n1Cc1ccc(-c2ccccc2-c2nn[nH]n2)cc1	4.3	100
CCCCc1cc(=O)n(Cc2ccccc2C(=O)OC)c(=O)n1Cc1ccc(-c2ccccc2-c2nnn[nH]2)cc1	2.4	27
CCCc1cc(=O)n(C)c(=O)n1Cc1ccc(-c2ccccc2-c2nn[nH]n2)cc1	17	55
CCCc1cc(=O)n(CCNC(=O)NC2CCCCC2)c(=O)n1Cc1ccc(-c2ccccc2-c2nnn[nH]2)cc1	1.4	23
Cn1c(=O)cc(C2CC2)n(Cc2ccc(-c3ccccc3-c3nn[nH]n3)cc2)c1=O		2400
CCCc1cc(=O)n(CC(=O)N(C)C)c(=O)n1Cc1ccc(-c2ccccc2-c2nn[nH]n2)cc1	0.65	9.3
CCCc1cc(=O)n(Cc2ccccc2)c(=O)n1Cc1ccc(-c2ccccc2-c2nn[nH]n2)cc1		25
CCCc1c(C)c(=O)n(C)c(=O)n1Cc1ccc(-c2ccccc2-c2nnn[nH]2)cc1		6600
CCCCn1c(=O)cc(CCC)n(Cc2ccc(-c3ccccc3-c3nn[nH]n3)cc2)c1=O		16
CCCc1cc(=O)n(Cc2ccccc2C(=O)OC)c(=O)n1Cc1ccc(-c2ccccc2-c2nnn[nH]2)cc1	2.3	20
CCCCc1nc(Cl)c(CO)n1Cc1ccc(-c2ccccc2-c2nn[nH]n2)cc1 [LOSARTAN]		160
